According to patent US20230150953A1, “SUBSTITUTED ISOPHTHALIC ACID DIAMIDES” (Bayer Aktiengesellschaft, priority 2020, published 2023):

How the values were obtained:
Format in all cases: in vivo
[1] = test system: ABUTH Abutilon theophrasti; assay: Pre-emergence herbicidal action against harmful plants; conditions: scored visually after 3 weeks vs untreated controls
Source text: (§1) The abbreviations used for the harmful plants mean: • ABUTH Abutilon theophrasti ALOMY Alopecurus myosuroides • AVEFA Avena fatua AMARE Amaranthus retroflexus • CYPES Cyperus esculentus DIGSA Digitaria sanguinalis • ECHCG Echinochloa crus-galli HORMU Hordeum murinum • LOLMU Lolium multiflorum LOLRI Lolium rigidum • MATIN Matricaria inodora PHBPU Pharbitis purpurea • POLCO Polygonum convolvulus SETVI Setaria viridis • STEME Stellaria media VERPE Veronica persica • VIOTR Viola tricolor 1. Pre-Emergence Herbicidal Action Against Harmful Plants Seeds of monocotyledonous and dicotyledonous weed plants and crop plants are laid out in sandy loam soil in wood-fiber pots and covered with soil. The compounds of the invention, formulated in the form of wettable powders (WP) or as emulsion concentrates (EC), are then applied to the surface of the covering soil in the form of an aqueous suspension or emulsion at a water application rate equivalent to 600 to 800 l/ha, with addition of 0.2% wetting agent. After the treatment, the pots are placed in a greenhouse and kept under good growth conditions for the trial plants. The damage to the test plants is scored visually after a test period of 3 weeks by comparison with untreated controls (herbicidal activity in percent (%): 100% activity=the plants have died, 0% activity=like control plants). […] The tables below illustrate, in an illustrative manner, the post-emergence herbicidal action of the compounds of the invention, the herbicidal activity being stated in percent.

[2] = test system: AMARE Amaranthus retroflexus; assay: as above; conditions: scored visually after 3 weeks vs untreated controls
Source text: as §1

[3] = test system: DIGSA Digitaria sanguinalis; assay: as above; conditions: scored visually after 3 weeks vs untreated controls
Source text: as §1

LOLRI Lolium rigidum = assay: as above; conditions: scored visually after 3 weeks vs untreated controls
Source text: as §1

MATIN Matricaria inodora = assay: as above; conditions: scored visually after 3 weeks vs untreated controls
Source text: as §1

PHBPU Pharbitis purpurea [4] = assay: as above; conditions: scored visually after 3 weeks vs untreated controls
Source text: as §1

[5] = test system: POLCO Polygonum convolvulus; assay: as above; conditions: scored visually after 3 weeks vs untreated controls
Source text: as §1

[6] = test system: AMARE Amaranthus retroflexus; assay: Post-emergence herbicidal action against harmful plants; conditions: one-leaf stage, assessed visually after about 3 weeks vs untreated controls
Source text: (§2) The abbreviations used for the harmful plants mean: • ABUTH Abutilon theophrasti ALOMY Alopecurus myosuroides • AVEFA Avena fatua AMARE Amaranthus retroflexus • CYPES Cyperus esculentus DIGSA Digitaria sanguinalis • ECHCG Echinochloa crus-galli HORMU Hordeum murinum • LOLMU Lolium multiflorum LOLRI Lolium rigidum • MATIN Matricaria inodora PHBPU Pharbitis purpurea • POLCO Polygonum convolvulus SETVI Setaria viridis • STEME Stellaria media VERPE Veronica persica • VIOTR Viola tricolor 2. Post-Emergence Herbicidal Action Against Harmful Plants Seeds of monocotyledonous and dicotyledonous weed and crop plants are laid out in sandy loam soil in wood-fiber pots, covered with soil and cultivated in a greenhouse under good growth conditions. 2 to 3 weeks after sowing, the test plants are treated at the one-leaf stage. The compounds of the invention, formulated in the form of wettable powders (WP) or as emulsion concentrates (EC), are then sprayed onto the green parts of the plants in the form of an aqueous suspension or emulsion at a water application rate equivalent to 600 to 800 l/ha, with addition of 0.2% wetting agent. After the test plants have been left to stand in the greenhouse under optimal growth conditions for about 3 weeks, the action of the preparations is assessed visually in comparison to untreated controls (herbicidal action in percent (%): 100% activity=the plants have died, 0% activity=like control plants). […] The tables below illustrate, in an illustrative manner, the post-emergence herbicidal action of the compounds of the invention, the herbicidal activity being stated in percent.

[7] = test system: ECHCG Echinochloa crus-galli; assay: as above; conditions: 20 g/ha, one-leaf stage, assessed visually after about 3 weeks vs untreated controls
Source text: as §2

PHBPU Pharbitis purpurea [8] = assay: as above; conditions: one-leaf stage, assessed visually after about 3 weeks vs untreated controls
Source text: as §2

[9] = test system: ALOMY Alopecurus myosuroides; assay: Pre-emergence herbicidal action against harmful plants; conditions: 80 g/ha, scored visually after 3 weeks vs untreated controls
Source text: as §1

SETVI Setaria viridis = assay: as above; conditions: scored visually after 3 weeks vs untreated controls
Source text: as §1

[10] = test system: ECHCG Echinochloa crus-galli; assay: as above; conditions: scored visually after 3 weeks vs untreated controls
Source text: as §1

[11] = test system: DIGSA Digitaria sanguinalis; assay: Post-emergence herbicidal action against harmful plants; conditions: one-leaf stage, assessed visually after about 3 weeks vs untreated controls
Source text: as §2

Row | Compound | Pre-emergence action at 80 g/ha against ABUTH in % [1] | Pre-emergence action at 20 g/ha against AMARE in % [2] | Pre-emergence action at 80 g/ha against AMARE in % [2] | Pre-emergence action at 20 g/ha against DIGSA in % [3] | Pre-emergence action at 80 g/ha against DIGSA in % [3] | Pre-emergence action at 80 g/ha against LOLRI in % (LOLRI Lolium rigidum) | Pre-emergence action at 20 g/ha against MATIN in % (MATIN Matricaria inodora) | Pre-emergence action at 80 g/ha against MATIN in % (MATIN Matricaria inodora) | Pre-emergence action at 80 g/ha against PHBPU in % (PHBPU Pharbitis purpurea [4]) | Pre-emergence action at 20 g/ha against POLCO in % [5] | Pre-emergence action at 80 g/ha against POLCO in % [5] | Post-emergence action at 5 g/ha against AMARE in % [6] | Post-emergence action at 20 g/ha against AMARE in % [6] | Post-emergence action at 20 g/ha against ECHCG in % [7] | Post-emergence action at 20 g/ha against PHBPU in % (PHBPU Pharbitis purpurea [8]) | Pre-emergence action at 80 g/ha against ALOMY in % [9] | Pre-emergence action at 80 g/ha against SETVI in % (SETVI Setaria viridis) | Pre-emergence action at 80 g/ha against ECHCG in % [10] | further results
1 | CCn1nnnc1NC(=O)c1c(F)cc(C(F)(F)F)c(C(=O)NC)c1C [Example 2-92] | 80% | 100% | 100% | 80% | 100% | 90% | 90% | 90% | 80% | 80% | 90% | 90% | 90% | 80% | 80% | – | – | – | –
2 | CCn1nnnc1NC(=O)c1c(F)cc(C(F)(F)F)c(C(=O)NCC#N)c1C [Example 2-386] | – | – | 100% | – | – | – | – | 80% | – | – | 80% | – | – | – | – | – | – | – | –
3 | Cc1c(C(=O)Nc2nnnn2C)c(F)cc(C(F)(F)F)c1C(=O)NCC(F)F [Example 1-385, N^1-(2,2-difluoroethyl)-4-fluoro-2-methyl-N^3-(1-methyl-1H-tetrazol-5-yl)-6-(trifluoromethyl)isophthalamide] | 80% | 90% | 100% | 80% | 100% | – | – | 90% | 80% | – | – | 90% | 90% | – | – | 90% | 90% | – | –
4 | CCNC(=O)c1c(C(F)(F)F)cc(F)c(C(=O)Nc2nnnn2C)c1C [Example 1-93] | 100% | 100% | 100% | 80% | 100% | 80% | – | 90% | 90% | – | 80% | 90% | 90% | – | 90% | 80% | 80% | 90% | Pre-emergence action at 20 g/ha against ABUTH in % [1]: 100%; Post-emergence action at 5 g/ha against PHBPU in % (PHBPU Pharbitis purpurea [8]; 5 g/ha): 80%
5 | CCNC(=O)c1c(C(F)(F)F)cc(OC)c(C(=O)Nc2nnnn2C)c1Cl [Example 1-388] | – | – | – | – | – | – | – | – | – | – | – | – | 80% | – | – | – | – | – | –
6 | CCn1nnnc1NC(=O)c1c(F)cc(C(F)(F)F)c(C(=O)NCC2CC2)c1C [Example 2-384] | 100% | 100% | 100% | 80% | 100% | – | – | 100% | 80% | 90% | 100% | 90% | 90% | 80% | – | 80% | 80% | 80% | Pre-emergence action at 20 g/ha against ABUTH in % [1]: 90%
7 | Cc1c(C(=O)Nc2nnnn2C)c(F)cc(C(F)(F)F)c1C(=O)N(C)C [Example 1-95] | – | 90% | 100% | 80% | 90% | – | – | 90% | – | – | 80% | – | 90% | – | – | 90% | 100% | – | Pre-emergence action at 20 g/ha against SETVI in % (SETVI Setaria viridis; 20 g/ha): 100%
8 | CCNC(=O)c1c(C(F)(F)F)cc(F)c(C(=O)Nc2nnnn2CC)c1C [Example 2-93, N^1-ethyl-N^3-(1-ethyl-1H-tetrazol-5-yl)-4-fluoro-2-methyl-6-(trifluoromethyl)isophthalamide] | 100% | 100% | 100% | – | 100% | – | 80% | 90% | 90% | – | – | 80% | 90% | – | 90% | 90% | 80% | 80% | Pre-emergence action at 20 g/ha against PHBPU in % (PHBPU Pharbitis purpurea [4]; 20 g/ha): 80%
9 | CCN(C)C(=O)c1c(C(F)(F)F)cc(F)c(C(=O)Nc2nnnn2C)c1C [Example 1-96] | 100% | – | 100% | – | 100% | – | 80% | 100% | – | – | – | 80% | 90% | 80% | – | 80% | 100% | 80% | Post-emergence action at 20 g/ha against DIGSA in % [11]: 90%
10 | CCn1nnnc1NC(=O)c1c(F)cc(C(F)(F)F)c(C(=O)N(C)C)c1C [Example 2-95, N′-(1-ethyl-1H-tetrazol-5-yl)-4-fluoro-N,N,2-trimethyl-6-(trifluoromethyl)isophthalamide] | 100% | – | 100% | 90% | 100% | 80% | – | 90% | – | 80% | 100% | – | – | – | 80% | 90% | 90% | 80% | –
